Patent publication US5621113A, “4-[(thien-2-yl)methyl]-imidazole analgesics” (priority 1996, dated 1997)
Structures can show the parent of a compound that is named as a salt. Where two headings read alike, the source gives them in different places.

Experiments:
[1] = molecular target: T1, Alpha2D adrenergic receptor (Rattus norvegicus, UniProt P22909); experiment: Alpha2D adrenergic receptor binding assay (3H-para-aminoclonidine, rat cortex synaptic membranes); design: species or system rat (male Wistar)
T1 construct: The cortex is dissected out and homogenized in 20 volumes of HEPES sucrose; from tissue; host or cells: rat brain cortex, synaptic membrane fraction (male Wistar rats, Charles River)
T1 sequence (P22909 1-465): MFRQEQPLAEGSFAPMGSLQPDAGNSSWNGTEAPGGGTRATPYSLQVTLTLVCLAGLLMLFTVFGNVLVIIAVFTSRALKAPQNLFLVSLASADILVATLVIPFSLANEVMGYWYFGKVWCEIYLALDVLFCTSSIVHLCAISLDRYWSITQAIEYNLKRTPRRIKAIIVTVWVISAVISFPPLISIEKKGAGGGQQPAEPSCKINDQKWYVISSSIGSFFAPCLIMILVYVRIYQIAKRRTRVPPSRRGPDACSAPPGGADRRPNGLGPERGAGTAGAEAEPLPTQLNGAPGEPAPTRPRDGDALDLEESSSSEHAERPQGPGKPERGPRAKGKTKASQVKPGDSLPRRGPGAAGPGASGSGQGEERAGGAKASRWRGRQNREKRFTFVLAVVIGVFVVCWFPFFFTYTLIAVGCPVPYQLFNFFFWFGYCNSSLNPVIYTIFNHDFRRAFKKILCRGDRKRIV
Protocol: Alpha2D adrenergic receptor binding assay
Male, Wistar rats (150-250 g, VAF, Charles River, Kingston, N.Y.) are sacrificed by cervical dislocation and their brains removed and placed immediately in ice cold HEPES buffered sucrose. The cortex is dissected out and homogenized in 20 volumes of HEPES sucrose in a Teflon®-glass homogenizer. The homogenate is centrifuged at 1000 g for 10 min, and the resulting supernatant centrifuged at 42,000 g for 10 min. The resulting pellet is resuspended in 30 volumes of 3 mM potassium phosphate buffer, pH 7.5, preincubated at 25° C. for 30 min and recentrifuged. The resulting pellet is resuspended as described above and used for the receptor binding assay. Incubation is performed in test tubes containing phosphate buffer, 2.5 mM MgCl2, aliquots of the synaptic membrane fraction, the ligand ^3 H-para-aminoclonidine and test drug at 25° C. for 20 min. The incubation is terminated by filtration of the tube contents through glass fiber filter sheets. Following washing of the sheets with 10 mM HEPES buffer, the adhering radioactivity is quantified by liquid scintillation spectrometry.
Binding of the test drug to the receptor is determined by comparing the amount of radiolabeled ligand bound in control tubes without drug to the amount of radiolabeled ligand bound in the presence of the drug. Dose-response data are analyzed with LIGAND, a nonlinear curve fitting program designed specifically for the analysis of ligand binding data. This assay is described by Simmons, R. M. A., and Jones, D. J., Binding of [^3 H-]prazosin and [^3 H-]p-aminoclonidine to α-Adrenoceptors in Rat Spinal Cord, Brain Research 445:338-349, 1988.

[2] = test system: acetylcholine bromide-induced abdominal constriction response; experiment: Mouse Acetylcholine Bromide-Induced Abdominal Constriction Assay; format: in vivo; settings: for ED50 / inhibition in vivo at 30 mg/kg: Mus musculus; for ED50: 0.5 h, oral, 30 minutes before acetylcholine bromide 5.5 mg/kg i.p., dose producing 50% analgesia; for inhibition in vivo at 30 mg/kg: po
Protocol: Mouse Acetylcholine Bromide-Induced Abdominal Constriction Assay
The mouse acetylcholine bromide-induced abdominal constriction assay, as described by Collier et al. in Brit. J. Pharmacol. Chem. Ther., 32: 295-310, 1968, with minor modifications was used to assess analgesic potency of the compounds herein. The test drugs or appropriate vehicle were administered orally (p.o.) and 30 minutes later the animal received an intraperitoneal (i.p.) injection of 5.5 mg/kg acetylcholine bromide (Matheson, Coleman and Bell, East Rutherford, N.J.). The mice were then placed in groups of three into glass bell jars and observed for a ten minute observation period for the occurrence of an abdominal constriction response (defined as a wave of constriction and elongation passing caudally along the abdominal wall, accompanied by a twisting of the trunk and followed by extension of the hind limbs). The percent inhibition of this response to a nociceptive stimulus (equated to % analgesia) was calculated as follows: The % Inhibition of response, i.e., % analgesia is equal to the difference between the number of control animals response and the number of drug-treated animals response times 100 divided by the number of control animals responding.
At least 15 animals were used for control and in each of the drug treated groups. At least three doses were used to determine each dose response curve and ED50 (that dose which would produce 50% analgesia). The ED50 values and their 95% fiducial limits were determined by a computer assisted probit analysis.

[3] = displacement of 3H-para-aminoclonidine, rat cortex membranes, 25° C., 20 min, read-out: Ki
[4] = @ 30 mpk (route not given; method: orally)

Row | SMILES | Ki [1] | ED50 [2] | further results
1 | Cc1ccsc1Cc1c[nH]cn1.Cl [Cp-1, 4-[(3-Methylthien-2-yl)methyl]-1H-imidazole Hydrochloride] | 0.45 nM | 0.94 mg/kg | 
2 | Cc1ccsc1C(C)c1c[nH]cn1.Cl (stereo not shown) [Cp-2, 4-[1-(3-methylthien-2-yl)ethyl]-1H-imidazole hydrochloride] | 2.1 nM | 1.4 mg/kg | 
3 | Brc1ccsc1Cc1c[nH]cn1.Cl [Cp-3, 4-[(3-Bromothien-2-yl)methyl]-1H-imidazole Hydrochloride] | 0.35 nM | 1.7 mg/kg | 
4 | CC(c1c[nH]cn1)c1sccc1Br.Cl (stereo not shown) [Cp-4, 4-[1-(3-Bromothien-2-yl)-ethyl]-1H-imidazole Hydrochloride] | 0.96 nM | 2.1 mg/kg | 
5 | Cc1csc(Cc2c[nH]cn2)c1C [Cp-5, 4-[(3,4-dimethylthien-2-yl)methyl]-1H-imidazole hydrochloride] | 0.17 nM |  | inhibition in vivo at 30 mg/kg ([2]; @ 30 mpk/po): 100%
6 | Cc1csc(C(C)c2c[nH]cn2)c1C (stereo not shown) [Cp-6, 4-[-(3,4-Dimethylthien-2-yl)ethyl]-1H-imidazole Fumarate] | 0.75 nM |  | inhibition in vivo at 30 mg/kg ([2]; @ 30 mpk/po): 87%
7 | Brc1csc(Cc2c[nH]cn2)c1Br [Cp-7, 4-[-(3,4-dibromothien-2-yl)methyl]-1H-imidazole fumarate] | 0.43 nM |  | inhibition in vivo at 30 mg/kg ([2]; @ 30 mpk/po): 80%
8 | CC(c1c[nH]cn1)c1scc(Br)c1Br (stereo not shown) [Cp-8, 4-[(3,4-dibromothien-2-yl)ethyl]-1H-imidazole fumarate] | 0.07 nM | 5.7 mg/kg | 
9 | Brc1csc(Cc2c[nH]cn2)c1 [Cp-9, 4-[-(4-Bromothien-2-yl)methyl]1H-imidazole Hydrochloride] | 1.4 nM |  | inhibition in vivo at 30 mg/kg ([2]; @ 30 mpk/po): 80%
10 | CC(C)=C(c1c[nH]cn1)c1sccc1C [drawing 24, reference compound] |  |  | Ki [1, 3]: 335 nM; Mouse Abdominal Constriction % Inhibition [2, 4]: 47%
11 | CC(C)=C(c1c[nH]cn1)c1sccc1C [drawing 25, reference compound] |  |  | Ki [1, 3]: 1000 nM; Mouse Abdominal Constriction % Inhibition [2, 4]: 73%
12 | Cc1ccc(Cc2c[nH]cn2)s1 [reference compound] | 3.6 nM |  | inhibition in vivo at 30 mg/kg [2, 4]: 33%
13 | c1csc(Cc2c[nH]cn2)c1 [reference compound] | 8.7 nM |  | inhibition in vivo at 30 mg/kg [2, 4]: 60%
14 | CCC(c1c[nH]cn1)c1sccc1C (stereo not shown) [reference compound] | 8.3 nM |  | inhibition in vivo at 30 mg/kg [2, 4]: 100%
